Laboratory results published in patent publication US4501914A, “2-Hydroxy-3-(o-methoxy-phenoxy)propyl 2-(p-isobutyl-phenyl)-propionate and pharmaceutical compositions containing the same” (priority 1982, dated 1985).

Experiments:
[1] = Pharmacokinetics, Ibuprofen plasma levels; assay type: in vivo, Charles River albino rats
[2] = tested on: Hyperthermia induced by yeast; assay: Antipyretic activity - hyperthermia induced by yeast (Boisser et al.); assay type: in vivo, male rats; conditions: for Rectal Temperature, 1 h / Rectal Temperature, 2 h / Rectal Temperature, 3 h / Rectal Temperature, 4 h / Rectal Temperature, 5 h / Rectal Temperature, basic / % inhib. over controls (hyperthermia): p.o., Ibuprofen 100 mg/kg, AFP 860 150 mg/kg
[3] = tested on: Pleurisy induced by carrageenin; assay: Pleurisy induced by carrageenin (Vinegar et al.); assay type: in vivo, Sprague-Dawley rats; parameters: leukocytes × 1000: unit not given here; conditions: for % inhib. over control (leukocytes) / % inhib. over control (volume of exudate) / leukocytes × 1000 / Volume (pleural exudate): 100 mg/kg per os; for Volume (pleural exudate): unit assumed
Protocol: Sprague-Dawley rats of both sexes weighing between 150 and 200 g were used. The animals were divided into "at random" groups and were starved on the previous day with water ad lib.
The compounds in question were administered orally 30 minutes before the intrapleural injection at an equal dose by weight of 100 mg/kg.

[4] = Pulmonary tropism, Ibuprofen lung/plasma concentration ratio; assay type: in vivo, Charles River albino rats; conditions: rat
gastric mucosa = assay: Gastrolesive action; conditions: for Mean dimensions (mm) Ulcers: 5 hours and 30 minutes after treatment, os, Ibuprofen 100 mg/kg, AFP 860 150 mg/kg
[5] = tested on: bronchosecretogogue activity; assay: Bronchosecretogogue activity (Mawatari's technique); assay type: in vivo, Wistar rats; conditions: for % increase of FlNa (sodium fluorescein) with respect to controls: 500 mg/kg os
Protocol: Bronchosecretogogue activity was determined in Wistar rats by means of per os administration using the method of Mawatari (Mawatari H., Kagoshima Daiagaku Igaku-Zasshi, 27, 561 (1976), and comparing AFP 860 and guaiaphenesine at the dosages given below. The results are shown in Table 8.

bronchial secretion = assay: Mucosecretolytic activity (technique of Giraldez et al.); assay type: in vivo, male rabbits; conditions: for % increase of bronchial secretion over controls: 500 mg/kg os
Protocol: Mucosecretolytic action was tested on male rabbits using the technique of Giraldez, Grass and Bruseghini (Abstr.Comp.Int.Pharm. N. 1086--Paris 1978) by means of oral administration and comparing AFP 860 with guaiaphenesine at the dosages given below.

[6] = tested on: contortions induced by phenylquinone; assay: Analgesic activity - phenylquinone contortions (Siegmund et al.); assay type: in vivo, mouse; conditions: for % inhib. over controls (contortions) / Mean No. of Contortions / No. animals undergoing contortions: 100 mg/kg os
[7] = Acute toxicity (Litchfield and Wilcoxon's Method), rabbit; conditions: in vivo, po, per os
Protocol: (§1) The acute toxicity was tested on various species of animal using Litchfield and Wilcoxon's Method (J. Pharm. Exp. Therap., 96, 99-113 (1949).

[8] = Acute toxicity (Litchfield and Wilcoxon's Method), rat; conditions: in vivo, po, per os
Protocol: as §1

[9] = tested on: Subplantar oedema induced by carrageenin; assay: Anti-inflammatory activity - carrageenin oedema; assay type: in vivo, rats; conditions: for AREA % Absolute value / AREA % inhibition over controls: times 0-5
Protocol: The tests were carried out on rats, using a test in which a subplantar oedema was induced by carrageenin.
AFP 860 and, for comparison, 2-(p-isobutylphenyl)propionic acid (Ibuprofen) were administered orally 30 minutes before the carrageenin at the dosages specified below.
When the oedema had been induced, the animals in each group were monitored, every 60 minutes for 5 consecutive hours in order to ascertain the development of the inflammatory process.

muscle relaxation = assay: Muscle relaxant activity, metal grille test (Kondziella); assay type: in vivo; conditions: mouse, per os, AFP 860 150 mg/kg, mephenesine 100 mg/kg
Text: Use was made of the method of Kondziella (1964) which consists in suspending the mice from a metal grille and in recording the number of animals which remain suspended for more than 30 seconds. The animals which fall off during this time period are considered to be subject to muscle relaxation.
A metal grille having a 7 mm mesh and a surface area of 2×2 m disposed horizontally at 1.5 m from the ground was used for this test. The mice were selected on the day preceding the test, rejecting those which fell within 30 seconds. These were then divided into 7 at random groups and starved. AFP 860 and, for comparison purposes, mephenesine both suspended in 1% carboxymethylcellulose were administered per os at dosages of 150 mg/kg in the case of AFP 860 and 100 mg/kg in the case of mephenesine. A third group of mice acting as the control received 1% CMC in equal volumes to those used for the mice treated with the drugs.
For each mouse the grille suspension tests were carried out 15 and 30 minutes after administration of the drugs in order to enable the evaluation of the time of maximum activity and then every 30 minutes until the muscle relaxant effect had completely disappeared in order to establish the duration of this effect.
The parameter used for evaluating the results was the percentage of animals subject to muscle relaxation with respect to those treated.

[10] = Acute toxicity (Litchfield and Wilcoxon's Method), mouse; conditions: in vivo, po, per os
Protocol: as §1

[11] = background statement; cited from earlier work
[12] = per os, Ibuprofen 100 mg/kg, AFP 860 150 mg/kg

In the case of `COc1ccccc1OCC(O)COC(=O)C(C)c1ccc(CC(C)C)cc1` (stereo not shown) [AFP 860, 2-hydroxy-3-(o-methoxyphenoxy)propyl 2-(p-isobutyl-phenyl)-propionate], the “Ibuprofen plasma levels (in words)” value ([1]; end of first hour to sixth hour, AFP 860 versus Ibuprofen per se) is reported as “higher after the administration of AFP 860 than after the administration of Ibuprofen per se”, the “latency and bio-availability (in words)” value ([1]; with respect to Ibuprofen and guaiaphenesine) is reported as “greater degree of latency and an improved bio-availability both with respect to Ibuprofen and guaiaphenesine” and the “Rectal Temperature, 1 h” value [2] is reported as 37.7 °C. For the same compound, the “Rectal Temperature, 2 h” value [2] was 37.7 °C, the “Rectal Temperature, 3 h” value [2] was 37.5 °C and the “Rectal Temperature, 4 h” value [2] was 37.3 °C. The “Rectal Temperature, 5 h” value [2] was 37.2 °C, the “Rectal Temperature, basic” value [2] was 38.4 °C and the “antipyretic activity (in words)” value ([2]; compared with Ibuprofen) was “very good antipyretic activity, which is in practice the same as that of Ibuprofen”. The “% inhib. over controls (hyperthermia)” value [2] was 127.0%, the “% inhib. over control (leukocytes)” value ([3]; 5 hours) was 70.75% and the “% inhib. over control (volume of exudate)” value ([3]; 5 hours) was 43.18%. The “leukocytes × 1000” value ([3]; 5 hours) was 5,130 × 1000, the Volume (pleural exudate) ([3]; 5 hours) was 0.54 mL and the “% inhib. over control (leukocytes)” value ([3]; 24 hours) was 60.75%. The “% inhib. over control (volume of exudate)” value ([3]; 24 hours) was 48.19%, the “leukocytes × 1000” value ([3]; 24 hours) was 7,190 × 1000 and the Volume (pleural exudate) ([3]; 24 hours) was 0.43 mL. For the same compound, the “protective action (in words)” value ([3]; after 24 hours, compared with Ibuprofen) was “much greater than that of Ibuprofen”, the “anti-inflammatory activity (in words)” value ([3]; pleurisy, equal doses by weight, compared with the comparison drug (Ibuprofen)) was “greater in absolute terms and of longer duration” and the “pulmonary tropism (in words)” value ([4]; in vivo) was “marked pulmonary tropism”. For the same compound, the “Mean dimensions (mm) Ulcers” value (gastric mucosa) was 0.8 ± 0.3 mm, the “gastrolesivity (in words)” value (gastric mucosa; compared with Ibuprofen) was “much lower than the Ibuprofen” and the “% increase of FlNa (sodium fluorescein) with respect to controls” value [5] was 24.5%. The “bronchosecretogogue effect (in words)” value ([5]; compared with guaiaphenesine, equal doses by weight) was “considerable effect as a bronchosecretogogue which may in practice be considered superimposable to that of guaiaphenesine”, the “% increase of bronchial secretion over controls” value (bronchial secretion) was 32.7% and the “secretolytic activity (in words)” value (bronchial secretion; compared with guaiaphenesine at the same dosages by weight) was “remarkable secretolytic activity which is comparable with that of guaiaphenesine”. The “analgesic activity (in words)” value ([6]; 100 mg/kg orally, compared with Ibuprofen at equal dosage by weight) was “slightly inferior to that of Ibuprofen”, the “% inhib. over controls (contortions)” value [6] was 70.45% and the “Mean No. of Contortions” value [6] was 3.9 ± 1.4. For the same compound, the “No. animals undergoing contortions” value [6] was 2/10, the LD50 [7] was 3300 mg/kg and the LD50 [8] was 2510 mg/kg. The “anti-inflammatory activity (in words)” value ([9]; carrageenin oedema, compared with Ibuprofen) was “excellent anti-inflammatory activity which is comparable to that of Ibuprofen”, the “Mean paw volume during treatment, time 0” value ([9]; time 0, per os, Ibuprofen 100 mg/kg, AFP 860 150 mg/kg) was 22.1 and the “Mean paw volume during treatment, time 1” value ([9]; time 1 (every 60 minutes), per os, Ibuprofen 100 mg/kg, AFP 860 150 mg/kg) was 27.1. For the same compound, the “Mean paw volume during treatment, time 2” value ([9]; time 2 (every 60 minutes), per os, Ibuprofen 100 mg/kg, AFP 860 150 mg/kg) was 30.2, the “Mean paw volume during treatment, time 3” value ([9]; time 3 (every 60 minutes), per os, Ibuprofen 100 mg/kg, AFP 860 150 mg/kg) was 31.6 and the “Mean paw volume during treatment, time 4” value ([9]; time 4 (every 60 minutes), per os, Ibuprofen 100 mg/kg, AFP 860 150 mg/kg) was 32.2. For the same compound, the “Mean paw volume during treatment, time 5” value ([9]; time 5 (every 60 minutes), per os, Ibuprofen 100 mg/kg, AFP 860 150 mg/kg) was 34.7, the “AREA % Absolute value” [9, 12] was 176.5 and the “AREA % inhibition over controls” value [9, 12] was 43.2%. The “% animals subject to muscle relaxation” value (muscle relaxation) was 60% and the LD50 [10] was 1850 mg/kg.
For `COc1ccccc1OCC(O)CO` (stereo not shown) [Guaiaphenesine, 3-(o-methoxyphenoxy)-1,2-propandiol, reference compound], the “% increase of FlNa (sodium fluorescein) with respect to controls” value [5] was 20.3% and the “% increase of bronchial secretion over controls” value (bronchial secretion) was 34.4%.
In the case of `CC(C)Cc1ccc(C(C)C(=O)O)cc1` (stereo not shown) [Ibuprofen, 2-(p-isobutylphenyl)propionic acid, reference compound], the Tmax ([1]; rat, plasma, po, after Ibuprofen 27 mg/kg per os, read-out: time of Ibuprofen peak in plasma (converted)) is reported as 30 min, the Cmax ([1]; rat, plasma, po, per os, equimolar: Ibuprofen 27 mg/kg, AFP 860 50 mg/kg, read-out: Ibuprofen peak plasma level) is reported as 24 µg/mL and the AUC ([1]; rat, plasma, po, per os, equimolar: Ibuprofen 27 mg/kg, AFP 860 50 mg/kg, read-out: area under the plasma level curve (AUC) for Ibuprofen) is reported as 49 µg·h/mL. For the same compound, the “Rectal Temperature, 1 h” value [2] was 38.0 °C, the “Rectal Temperature, 2 h” value [2] was 37.7 °C and the “Rectal Temperature, 3 h” value [2] was 37.3 °C. The “Rectal Temperature, 4 h” value [2] was 37.5 °C, the “Rectal Temperature, 5 h” value [2] was 37.4 °C and the “Rectal Temperature, basic” value [2] was 38.8 °C. For the same compound, the “% inhib. over controls (hyperthermia)” value [2] was 119.0%, the “% inhib. over control (leukocytes)” value ([3]; 5 hours) was 69.32% and the “leukocytes × 1000” value ([3]; 5 hours) was 5,380 × 1000. The “% inhib. over control (leukocytes)” value ([3]; 24 hours) was 7.47%, the “leukocytes × 1000” value ([3]; 24 hours) was 16,950 × 1000 and the Kp at 0.5 h ([4]; lung, po, 30 mins, per os, Ibuprofen 27 mg/kg, AFP 860 50 mg/kg, read-out: Ibuprofen concentration ratio between lung and plasma) was 0.2. The Kp at 1 h ([4]; lung, po, 1 hour, per os, Ibuprofen 27 mg/kg, AFP 860 50 mg/kg, read-out: Ibuprofen concentration ratio between lung and plasma) was 0.3, the “Mean dimensions (mm) Ulcers” value (gastric mucosa) was 8.7 ± 1.4 mm and the “gastric lesions (in words)” value [11] was “considerable gastric lesions”. For the same compound, the “% inhib. over controls (contortions)” value [6] was 82.26%, the “Mean No. of Contortions” value [6] was 1.8 ± 0.6 and the “No. animals undergoing contortions” value [6] was 1/10. The “AREA % Absolute value” [9, 12] was 184.0 and the “AREA % inhibition over controls” value [9, 12] was 40.8%.
For `Cc1ccccc1OCC(O)CO` (stereo not shown) [Mephenesine, reference compound], the “% animals subject to muscle relaxation” value (muscle relaxation) was 60%.
